Entries after “also recorded” stand apart in the source; their conditions may differ. Like-named read-outs stand apart in the source and are kept apart here.
Key:
5α-reductase 1 = settings: isozyme predominating in sebaceous glands of facial and skin tissue; G. Harris et al. 1992; cited from earlier work
[1] = system: men with clinical benign prostatic hyperplasia (BPH); assay: Four-year double-blind placebo-controlled clinical study of finasteride, analysed by concomitant calcium channel blocker use; assay type: in vivo, human; settings: for Hazard Ratio (95% CI), AUR / Hazard Ratio (95% CI), Precipitated AUR / Hazard Ratio (95% CI), Spontaneous AUR / Hazard Ratio (95% CI), Surgery / Hazard Ratio (95% CI), Surgery and AUR: finasteride vs placebo; for Urologic events: AUR (incidence) / Urologic events: Precipitated AUR (incidence) / Urologic events: Spontaneous AUR (incidence) / Urologic events: Surgery (incidence) / Urologic events: Surgery and AUR (incidence): 5 mg finasteride daily, four-year study
Protocol: A total of 3040 men with clinical benign prostatic hyperplasia (BPH) diagnosed on the basis of moderate-to-severe symptoms, a decreased peak urinary flow rate (less than 15 mL/sec with a voided volume of 150 mL or more) and an enlarged prostate gland by digital rectal examination (DRE) were enrolled in a four-year study comparing finasteride with placebo. Men receiving alpha blocking agents or antiandrogens, and men with a history of chronic prostatitis, recurrent urinary tract infections, prostate or bladder cancer or surgery, or a serum prostate specific antigen (PSA) over 10 ng/mL were excluded. Men with serum PSA concentrations between 4.0 and 9.9 ng/mL had to have a negative prostate biopsy prior to enrollment.
After a one-month single-blind placebo lead-in, men were randomly assigned to receive placebo or 5 mg of finasteride (17β-(N-tert-butylcarbamoyl)-3-oxo-4-aza-5α-androst-1-en-3-one)daily in a four year, double-blind placebo-controlled study. BPH-related outcomes including symptoms, bothersomeness, adverse events and urinary flow rates, were assessed every 4 months. Serum PSA was measured every 4 months in the first year and then every 8 months at a central laboratory. Physical examination and routine hematological and serum chemistry tests were performed yearly. Magnetic resonance imaging (MRI) was performed at baseline and subsequently yearly in a subset of 10% of patients. All MRI images were read by a central radiologist blinded to treatment allocation and time of imaging.
Acute urinary retention (AUR) and surgery for BPH were predefined secondary end-points. The endpoint committee, blinded to treatment group, reviewed all study-related documents related to episodes of acute urinary retention, and all prostate surgeries for BPH, excluding surgery for prostate cancer. The endpoint committee classified episodes of AUR as spontaneous versus precipitated (when contributing factors such as urinary tract infection, surgery anesthesia, ingestion of alpha sympathomimetic drugs or anticholinergics were identified).
For a relatively clean comparison, data from patients in categories (a) and (b) were analyzed and patients in category (c) were excluded.

5α-reductase 2 = settings: isozyme predominating in the prostate, cited from earlier work
[2] = finasteride treated patients also on calcium channel blockers vs not on calcium channel blockers
[3] = patients who did not take a calcium channel blocker
[4] = patients who took a calcium channel blocker for more than 365 days
[5] = patients who did not take a calcium channel blocker, N = 1181
[6] = patients who took a calcium channel blocker for more than 365 days, N = 236

CC(C)(C)NC(=O)[C@H]1CC[C@H]2[C@@H]3CC[C@H]4NC(=O)C=C[C@]4(C)[C@H]3CC[C@]12C [Finasteride, 17β-(N-tert-butylcarbamoyl)-3-oxo-4-aza-5α-androst-1-ene-3-one]
sensitivity of 5α-reductase type 1 to finasteride (5α-reductase 1): relatively insensitive | rate of improvement in symptom score by month 16 ([1]; finasteride only group): continued to increase | change of PSA (prostate specific antigen) versus time in the study ([1]; finasteride plus calcium channel blocker for more than 365 days, compared with finasteride only and placebo groups (FIG. 1)): greater decrease in PSA; also recorded: greatest decrease in PSA | change in Quasi-AUA symptom score versus time in the study ([1]; finasteride plus calcium channel blocker for more than 365 days, compared with finasteride only and placebo groups (FIG. 2)): initally improved much faster; also recorded: greatest decrease in symptom score | change in maximum urinary flow rate versus time in the study ([1]; finasteride plus calcium channel blocker for more than 365 days, compared with finasteride only and placebo groups (FIG. 3)): greater increase in maximum urinary flow rate; also recorded: greatest increase in maximum flow rate after 12 months | change in prostate volume versus time in the study ([1]; finasteride plus calcium channel blocker for more than 365 days, compared with finasteride only and placebo groups (FIG. 4)): greater decrease; also recorded: greatest decrease in prostate volume | rate of improvement in symptom score by month 16 ([1]; finasteride plus calcium channel blocker group): decreased rate of improvement in symptom score | incidence of spontaneous acute urinary retention (AUR) (comparison) [1, 2]: lower | incidence of urologic surgery (comparison) [1, 2]: lower | Hazard Ratio (95% CI), AUR [1, 3]: 0.44 (0.30 to 0.64) | Hazard Ratio (95% CI), Precipitated AUR [1, 3]: 0.55 (0.31 to 0.99) | Hazard Ratio (95% CI), Spontaneous AUR [1, 3]: 0.38 (0.23 to 0.62) | Hazard Ratio (95% CI), Surgery [1, 3]: 0.42 (0.31 to 0.57) | Hazard Ratio (95% CI), Surgery and AUR [1, 3]: 0.48 (0.37 to 0.62) | Hazard Ratio (95% CI), AUR [1, 4]: 0.46 (0.20 to 1.10) | Hazard Ratio (95% CI), Precipitated AUR [1, 4]: 0.50 (0.19 to 1.31) | Hazard Ratio (95% CI), Spontaneous AUR [1, 4]: 0.24 (0.05 to 1.21) | Hazard Ratio (95% CI), Surgery [1, 4]: 0.55 (0.25 to 1.22) | Hazard Ratio (95% CI), Surgery and AUR [1, 4]: 0.53 (0.28 to 1.00) | Urologic events: AUR (incidence) [1, 5]: 2.6% | Urologic events: Precipitated AUR (incidence) [1, 5]: 1.4% | Urologic events: Spontaneous AUR (incidence) [1, 5]: 1.4% | Urologic events: Surgery (incidence) [1, 5]: 4.4% | Urologic events: Surgery and AUR (incidence) [1, 5]: 6.4% | Urologic events: AUR (incidence) [1, 6]: 3.0% | Urologic events: Precipitated AUR (incidence) [1, 6]: 2.5% | Urologic events: Spontaneous AUR (incidence) [1, 6]: 0.4% | Urologic events: Surgery (incidence) [1, 6]: 3.8% | Urologic events: Surgery and AUR (incidence) [1, 6]: 5.9% | inhibition of 5α-reductase type 2 (human prostate enzyme) (5α-reductase 2): potent inhibitor | inhibition of 5α-reductase type 2 (human prostate enzyme) (5α-reductase 2; listed as finasteride): potently inhibited

From patent US6268377A, “Method for treating androgen-related conditions” (Merck & Co., Inc., priority 1999, dated 2001)
